Legend:
Format in all cases: cell-based
[1] = tested on: cyclins A2 and B1 in A549 cells; test: Western blot of cell cycle-related proteins after VX-680 treatment; conditions: A549, VX-680 time course
Protocol: (c) is a series of western blots showing the comparison of expression levels of cell cycle-related proteins (Rb, cdc2, Cdk2, cyclin A2, cyclin E1 and cyclin B1) and p53-dependent gene products (MDM2 and p21) at the indicated time points after VX-680 treatment. Downregulation of mitotic cyclins A and B and upregulation of p53-dependent genes p21 and MDM2 correlate with the activation of p53.
(§1) For western blotting, cell extracts were prepared using NP-40 lysis buffer (50 mM Tris-HCl (pH 8.0), 150 mM NaCl, 1% NP-40, 5 mM EDTA supplemented with protease and phosphatase inhibitor cocktails (Sigma).

[2] = tested on: Cdk/cyclin kinase activities (Cdk2, cdc2, cyclins A2 and B1) in A549 cells; test: Cdk/cyclin kinase activities after incubation with VX-680 (immunoprecipitation, histone H1 kinase assay); conditions: A549, VX-680 time course
Protocol: (b) is a series of western blots showing the kinetics of Kinetics of Cdk/cyclin kinase activities after incubation with VX-680. Cdk/cyclin kinase activities were assayed in vitro (refer to Materials and Methods in Examples). Cdk2, cyclins A and B1 were immunoprecipitated from cell lysates using specific antibodies followed by in vitro kinase assays using histone H1 as a substrate. Suc1 is used to capture Cdk1 and Cdk2 complexes by protein pull down as described in Materials and Methods. […]
The immunoprecipitated beads were resuspended in 5 μl of EB buffer, 10 mM DTT and 20 to […]. […] After electrophoresis on 12.5% polyacrylamide gels, phosphorylation was analyzed by autoradiography and quantified by phosphorimage analysis.

[3] = tested on: ATM; test: ATM / DNA damage checkpoint dependence of VX-680-induced G2 arrest (western blot, DNA FACS profiles)
Protocol: as §1

[4] = tested on: p53, p21, MDM2 and PUMA; test: Accumulation of p53 and p53-dependent gene products in response to VX-680 (western blot, transcript levels); conditions: cells treated with VX-680 (FIG. 8A)
Protocol: (A) Western blots show the accumulation of p53, p21, MDM2 and PUMA proteins. Graphs below represent the quantification of the corresponding transcript levels of the proteins.
as §1
Total RNA was isolated using the RNeasy kit (Qiagen, Valencia, Calif., USA). The RNA was quantified using spectrophotometric analysis and used for quantitative real-time PCR. The primers used for each target analyzed are available on request. The RNA Master Power SYBR Green Mix (Roche) was used for quantification of mRNA levels.

SMILES: Cc1cc(Nc2cc(N3CCN(C)CC3)nc(Sc3ccc(NC(=O)C4CC4)cc3)n2)[nH]n1 [VX-680, cyclopropane carboxylic acid of {4-[4-(4-methyl-piperazin-1-yl)-6-(5-methyl-2H-pyrazol-3-ylamino)-pyrimidin-2-ylsulphanyl]-phenyl}-amide]
- protein levels of cyclins A2 and B1 [1]: timedependent decrease
- Cdk2 and cdc2 kinase activities [2]: markedly reduced to undetectable levels
- cyclins A2- and B1-associated kinase activities [2]: rapid reduction
- p53 phosphorylation on Ser15 ([3]; VX-680-treated cells): without detectable phosphorylation on Ser15
- activation of ATM (Ser1981 phosphorylation) ([3]; low concentrations of VX-680): did not induce activation of ATM
- p53 activation [4]: p53 was activated
- p53 target genes p21, PUMA and MDM2 [4]: all upregulated

From patent publication US20130344140A1, “NOVEL PHARMACEUTICAL COMBINATIONS AND METHODS FOR TREATING CANCER” (Agency for Science, Technology and Research, priority 2011, published 2013)
